Test results: patent publication US10906938B2, “Cell epitopes and combination of cell epitopes for use in the immunotherapy of myeloma and other cancers” (Immatics Biotechnologies GmbH, priority 2015, dated 2021)

Experiments:
[1] = test system: MM.1S cells; assay: HLA class I ligand presentation upon carfilzomib treatment on MM.1S cells (LC-MS/MS); assay type: cell-based, human; design: key to modulation upon carfilzomib-treatment 24 #1 / modulation upon carfilzomib-treatment 24 #2 / modulation upon carfilzomib-treatment 24 #3 / modulation upon carfilzomib-treatment 48 #1 / modulation upon carfilzomib-treatment 48 #2 / modulation upon carfilzomib-treatment 48 #3: −1: significantly down-modulated; 0: not signifcant/not detected; 1: significantly up-modulated; conditions: MM.1S cells; for modulation upon carfilzomib-treatment 24 #1 / modulation upon carfilzomib-treatment 24 #2 / modulation upon carfilzomib-treatment 24 #3: 24 h after carfilzomib treatment (100 nM, 1 h); for modulation upon carfilzomib-treatment 24 #1 / modulation upon carfilzomib-treatment 48 #1: biological replicate #1; for modulation upon carfilzomib-treatment 24 #1 / modulation upon carfilzomib-treatment 24 #2 / modulation upon carfilzomib-treatment 24 #3 / modulation upon carfilzomib-treatment 48 #1 / modulation upon carfilzomib-treatment 48 #2 / modulation upon carfilzomib-treatment 48 #3: vs mock-treated controls; for modulation upon carfilzomib-treatment 24 #2 / modulation upon carfilzomib-treatment 48 #2: biological replicate #2; for modulation upon carfilzomib-treatment 24 #3 / modulation upon carfilzomib-treatment 48 #3: biological replicate #3; for modulation upon carfilzomib-treatment 48 #1 / modulation upon carfilzomib-treatment 48 #2 / modulation upon carfilzomib-treatment 48 #3: 48 h after carfilzomib treatment (100 nM, 1 h)
Procedure: (§1) HLA class I and II molecules were isolated using standard immunoaffinity purification as described using the pan-HLA class I specific mAb W6/32, the pan-HLA class II specific mAb T039 and the HLA-DR specific mAB L243 (produced in house).
(§2) HLA ligand extracts were analyzed in 5 technical replicates as described previously. In brief, peptide samples were separated by nanoflow HPLC (RSLCnano, ThermoFisher) using a 50 μm×25 cm PepMap RSLC column (Thermo Fisher) and a gradient ranging from 2.4 to 32.0% acetonitrile over the course of 90 min. Eluting peptides were analyzed in an online coupled LTQ Orbitrap XL mass spectrometer (Thermo Fisher) using a top 5 CID (collision induced dissociation) fragmentation method.
(§3) Data processing was performed as described previously. In brief, the Mascot search engine (Mascot 2.2.04; Matrix Science, London, UK) was implemented to search the human proteome as comprised in the Swiss-Prot database (20,279 reviewed protein sequences, September 2013) without enzymatic restriction. Potential mutated HLA ligands were searched implementing a database containing the human proteome concatenated with proteins containing single amino acid variants (SAVs) listed in the COSMIC database (http://cancer.sanger.ac.uk/cosmic/). Only recurrent SAVs described in 2 or more samples of hematological origin were included. Oxidized methionine was allowed as a dynamic modification. The false discovery rate was estimated using the Percolator algorithm and set to 5%. Peptide lengths were limited to 8-12 amino acids for HLA class I and 12-25 amino acids for HLA class II. Protein inference was disabled, allowing for multiple protein annotations of peptides. HLA annotation was performed using SYFPEITHI [46] or an extended in-house database. Experimental validation of peptide identifications and HLA annotations was performed by mass spectrometric and functional characterization of synthetic peptides for a subset of peptides.
(§4) The inventors quantitatively assessed HLA class I ligand presentation during proteasome inhibitor therapy. Observed was a considerable plasticity of the HLA class I ligandome after treatment with carfilzomib with 17.9±1.1% of MM.1S ligands and 11.2±0.7% of U266 ligands (mean of three biological replicates ±s.d.) showing significant modulation (fold-change ≥4, Po0.01 after Benjamini-Hochberg correction) at t24 h compared with mock-treated controls. Briefly, Cultured MCLs (MM.1S and U266) and primary myeloma samples were incubated with carfilzomib (100 nM, Kyprolis®, available, e.g., from Onyx Pharmaceuticals, Inc.) as an example for a proteasome inhibitor for a 1-h period, followed by three washes in PBS (Gibco) and recultured for additional 24 or 48 h. Controls were incubated with vehicle control (glucose 5%) for 1 h, followed by identical washing and incubation for 24 or 48 h. Experiments were conducted in three biological replicates where indicated.

[2] = test system: U266 cells; assay: HLA class I ligand presentation upon carfilzomib treatment on U266 cells (LC-MS/MS); assay type: cell-based, human; design: key to modulation upon carfilzomib-treatment 24 #1 / modulation upon carfilzomib-treatment 24 #2 / modulation upon carfilzomib-treatment 24 #3 / modulation upon carfilzomib-treatment 48 #1 / modulation upon carfilzomib-treatment 48 #2 / modulation upon carfilzomib-treatment 48 #3: −1: significantly down-modulated; 0: not signifcant/not detected; 1: significantly up-modulated; conditions: U266 cells, vs mock-treated controls; for modulation upon carfilzomib-treatment 24 #1 / modulation upon carfilzomib-treatment 24 #2 / modulation upon carfilzomib-treatment 24 #3: 24 h after carfilzomib treatment (100 nM, 1 h); for modulation upon carfilzomib-treatment 24 #1 / modulation upon carfilzomib-treatment 48 #1: biological replicate #1; for modulation upon carfilzomib-treatment 24 #2 / modulation upon carfilzomib-treatment 48 #2: biological replicate #2; for modulation upon carfilzomib-treatment 24 #3 / modulation upon carfilzomib-treatment 48 #3: biological replicate #3; for modulation upon carfilzomib-treatment 48 #1 / modulation upon carfilzomib-treatment 48 #2 / modulation upon carfilzomib-treatment 48 #3: 48 h after carfilzomib treatment (100 nM, 1 h)
Procedure: as §1, §2, §3, §4

Row | Sequence | modulation upon carfilzomib-treatment 24 #1 [1] | modulation upon carfilzomib-treatment 24 #2 [1] | modulation upon carfilzomib-treatment 24 #3 [1] | modulation upon carfilzomib-treatment 48 #1 [1] | modulation upon carfilzomib-treatment 48 #2 [1] | modulation upon carfilzomib-treatment 48 #3 [1] | modulation of peptide presentation upon carfilzomib treatment ([1]; 24 h after carfilzomib treatment) | modulation upon carfilzomib-treatment 24 #1 [2] | modulation upon carfilzomib-treatment 24 #2 [2] | modulation upon carfilzomib-treatment 24 #3 [2] | modulation upon carfilzomib-treatment 48 #1 [2] | modulation upon carfilzomib-treatment 48 #2 [2] | modulation upon carfilzomib-treatment 48 #3 [2]
1 | NEFPVFDEF | 0 | 0 | 0 | 0 | 0 | 0 |  |  |  |  |  |  | 
2 | YYLNEIQSF | 0 | 0 | 0 | 0 | 0 | 0 |  |  |  |  |  |  | 
3 | TFLPFIHTI | 0 | 0 | 0 | 0 | 0 | 0 |  |  |  |  |  |  | 
4 | RYFKGPELL | 0 | 0 | 0 | 0 | 0 | 0 |  |  |  |  |  |  | 
5 | NEVIMTIGF | 0 | 0 | 0 | 0 | 1 | 0 |  |  |  |  |  |  | 
6 | IEHPSMSVY | 1 | 1 | 1 | 0 | 1 | 1 |  |  |  |  |  |  | 
7 | YVFPGVTRL | 0 | 0 | 0 | −1 | 0 | 0 |  |  |  |  |  |  | 
8 | LAFPGEMLL | 0 | 0 | 0 | 0 | 0 | 0 |  |  |  |  |  |  | 
9 | RYSTQIHSF | 0 | 0 | 0 | 0 | 0 | 0 |  |  |  |  |  |  | 
10 | YYLNEIQSF [SEQ ID NO: 228] |  |  |  |  |  |  | no significant modulation |  |  |  |  |  | 
11 | VPLPPKGRVL | 0 | 0 | 0 | 0 | 0 | 0 |  |  |  |  |  |  | 
12 | VPLTRVSGGAA | 1 | 1 | 1 | 1 | 1 | 1 |  |  |  |  |  |  | 
13 | RPHGGKSL | 0 | 0 | 0 | 0 | 0 | 0 |  |  |  |  |  |  | 
14 | RYSPVLSRF | 0 | 0 | 0 | 0 | 0 | 0 |  |  |  |  |  |  | 
15 | SYLNSVQRL | 0 | 0 | 0 | 0 | 0 | 0 |  |  |  |  |  |  | 
16 | APFQGDQRSL |  |  |  |  |  |  |  | 0 | 1 | 1 | 0 | 1 | 0
17 | SRGDFVVEY |  |  |  |  |  |  |  | 0 | −1 | 0 | 0 | 0 | −1
18 | ILRDGITAGK |  |  |  |  |  |  |  | 0 | 0 | 0 | 0 | 0 | 0
19 | ALWGRTTLK |  |  |  |  |  |  |  | 0 | 0 | 0 | 0 | 0 | 0
20 | LPPPPHVPL |  |  |  |  |  |  |  | 0 | 0 | 0 | 0 | 0 | 0
21 | AEQEIARLVL |  |  |  |  |  |  |  | 0 | 0 | 0 | 0 | 0 | 0
22 | LLFPYILPPK |  |  |  |  |  |  |  | 0 | 0 | 0 | 0 | 0 | 0
23 | APRHPSTNSLL |  |  |  |  |  |  |  | 0 | 1 | 0 | 1 | 1 | 0
24 | GEVAPSMFL |  |  |  |  |  |  |  | 0 | 0 | 0 | 0 | 0 | 0
25 | SPALKRLDL |  |  |  |  |  |  |  | 0 | 0 | 0 | 0 | 0 | 0
26 | GPRPITQSEL |  |  |  |  |  |  |  | 0 | 0 | 0 | 0 | 0 | 0
27 | KEGLILPETL |  |  |  |  |  |  |  | 1 | 1 | 0 | 0 | 0 | 0
